Results reported in BindingDB's records for patent US12441689 (Epivario, 2025).

Biological target: Acetyl-coenzyme A synthetase, cytoplasmic (Homo sapiens, UniProt Q9NR19)
Test: ACSS2 Cell-Free Activity Assay
Procedure: At the end of the reaction, Biomol Green was added for 30 minutes at RT and the activity was measured by reading the absorbance at 620 nm.

Chain of Acetyl-coenzyme A synthetase, cytoplasmic (Q9NR19 whole entry): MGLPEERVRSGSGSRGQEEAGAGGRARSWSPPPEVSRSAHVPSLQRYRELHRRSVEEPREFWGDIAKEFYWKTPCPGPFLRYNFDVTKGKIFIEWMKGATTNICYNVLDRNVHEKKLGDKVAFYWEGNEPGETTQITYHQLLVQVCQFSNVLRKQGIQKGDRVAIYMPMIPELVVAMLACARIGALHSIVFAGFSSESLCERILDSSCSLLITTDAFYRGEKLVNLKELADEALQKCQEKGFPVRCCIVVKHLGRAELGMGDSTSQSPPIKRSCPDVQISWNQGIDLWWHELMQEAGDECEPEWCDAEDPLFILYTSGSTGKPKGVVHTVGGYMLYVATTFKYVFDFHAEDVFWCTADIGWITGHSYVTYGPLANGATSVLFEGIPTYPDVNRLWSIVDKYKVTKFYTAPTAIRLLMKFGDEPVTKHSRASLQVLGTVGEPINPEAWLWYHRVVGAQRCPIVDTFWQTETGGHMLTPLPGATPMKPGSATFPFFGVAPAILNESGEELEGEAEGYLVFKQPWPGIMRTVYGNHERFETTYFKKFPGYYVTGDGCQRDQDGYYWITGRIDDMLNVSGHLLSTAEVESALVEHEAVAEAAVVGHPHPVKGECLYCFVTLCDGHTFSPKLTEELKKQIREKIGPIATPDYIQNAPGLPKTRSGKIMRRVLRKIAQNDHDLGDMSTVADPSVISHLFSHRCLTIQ

IC50: > 100 nM
SMILES: CCC(F)(F)c1cccc(NC(=O)c2nc(-c3ccc4cc[nH]c4c3)oc2C)c1 [US12441689, Compound 106]
